Measurements: US10060934B2, “Methods for screening patients for resistance to angioinhibition, treatment and prophylaxis thereof” (NANOPHARMACEUTICALS LLC, priority 2013, dated 2018)

Columns and labels:
[1] = system: chick chorioallantoic membrane (CAM); assay: Chick chorioallantoic membrane (CAM) angiogenesis assay; assay type: in vivo; conditions: pro-angiogenic factor alone
Experimental: Examples of the CAM assay methodology may include the step of providing chick embryos. In some embodiments, the chick embryos may be approximately 10 days old. The chick embryos may be incubated at approximately 37° C. with approximately 55% relative humidity. A hypodermic needle may be used to make a small hole in the shell concealing an air sac, and a second hole may be made on the broad side of the egg, directly over an avascular portion of the embryonic membrane. A false air sac may be created beneath the second hole by the application of negative pressure at the first hole, causing the CAM to separate from the shell. A window, approximately 1.0 cm^2, in size may be cut in the shell over the CAM with a small-crafts grinding wheel, allowing direct access to the underlying CAM. In some embodiments, a pro-angiogenic agent may be provided to induce new blood vessel branches on the CAM of 10-day-old embryos. In the exemplary embodiment, the pro-angiogenic agents may be the endogenous non-peptide pro-angiogenic hormones supplied in the patient's blood sample. The patient's blood sample may subsequently be introduced into the xenograft having a vasculature system in the CAM. The pro-angiogenic agent, the blood or serum sample of the patient along with one or more anti-angiogenic agents may be applied to a sterile disk and followed by allowing the disks to dry. In some embodiments of the CAM assay, Sterile disks of No. 1 filter paper (Whatman International) may be pretreated with approximately 3 mg/mL cortisone acetate and 1 mmol/L of the patient's blood or serum, along with one or more anti-angiogenic agents and air dried under sterile conditions. The disks may then be suspended in phosphate buffered saline (PBS) and placed on growing CAMs. At approximately the 24 hour mark, a mitogen-activated protein kinase (MAPK) cascade inhibitor such as PD 98059 may also be added to CAMs topically by means of the filter disks. Exemplary embodiments having one or more anti-angiogenic agent, may include two, three, four, five or more anti-angiogenic agents, including at least one thyroid hormone antagonist such as tetrac, triac, or conjugated tetrac or triac. After incubation at 37° C. with 55% relative humidity for 3 days, the CAM tissue directly beneath each filter disk may be resected and treated. The tissues may subsequently be washed approximately three times with PBS, placed in 35-mm Petri dishes (Nalge Nunc), and examined under a stereomicroscope at approximately 50× magnification or more. Digital images of CAM sections exposed to filters may be collected and quantified using a 3-charge-coupled device color video camera system and analyzed with Image-Pro software (Media Cybernetics) or equivalent software. Embodiments of the CAM system may not only index tumor-related angiogenesis, but permits spherical tumor growth of the implanted cells. Spherical growth may be important to the development of a hypoxic cell population that resemble tumor behavior clinically. Aggressive xenograft behavior in the CAM model may include metastasis to the chick embryo in the system.

integrin αvβ3 = integrin αvβ3 (Homo sapiens, UniProt P05106+P06756); conditions: cited from earlier work
[2] = system: basic fibroblast growth factor (bFGF, FGF2), vascular endothelial growth factor (VEGF); conditions: in the absence of thyroid hormone; cited from earlier work
glioma cells = conditions: in vitro; cited from earlier work
[3] = system: human breast cancer cells; conditions: in vitro; cited from earlier work

Sequence of integrin αvβ3 (P06756 31-889 limits assumed): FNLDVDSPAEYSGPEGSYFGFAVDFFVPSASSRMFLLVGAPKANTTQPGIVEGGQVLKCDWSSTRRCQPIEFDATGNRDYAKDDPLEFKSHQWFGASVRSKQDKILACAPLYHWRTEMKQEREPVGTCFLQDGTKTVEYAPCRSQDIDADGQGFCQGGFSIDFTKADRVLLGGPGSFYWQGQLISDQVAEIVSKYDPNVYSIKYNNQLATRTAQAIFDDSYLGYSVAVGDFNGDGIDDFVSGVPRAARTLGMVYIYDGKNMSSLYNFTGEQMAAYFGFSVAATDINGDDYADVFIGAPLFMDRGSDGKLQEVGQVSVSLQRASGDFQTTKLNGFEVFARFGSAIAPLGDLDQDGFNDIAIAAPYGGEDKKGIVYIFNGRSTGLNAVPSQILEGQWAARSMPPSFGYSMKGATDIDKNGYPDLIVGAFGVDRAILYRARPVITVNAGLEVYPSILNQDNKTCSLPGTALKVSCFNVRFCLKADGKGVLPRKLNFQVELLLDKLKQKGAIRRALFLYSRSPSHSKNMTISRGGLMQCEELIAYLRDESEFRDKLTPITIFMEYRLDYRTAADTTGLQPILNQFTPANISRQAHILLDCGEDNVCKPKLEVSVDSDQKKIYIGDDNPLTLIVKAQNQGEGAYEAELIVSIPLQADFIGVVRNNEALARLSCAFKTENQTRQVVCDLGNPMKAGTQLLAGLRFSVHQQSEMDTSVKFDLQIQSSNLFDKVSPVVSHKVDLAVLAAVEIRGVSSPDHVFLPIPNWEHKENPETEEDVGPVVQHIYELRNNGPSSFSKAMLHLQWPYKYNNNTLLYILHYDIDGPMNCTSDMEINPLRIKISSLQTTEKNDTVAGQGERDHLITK
Sequence of integrin αvβ3 (P06756 891-1048 partner limits assumed): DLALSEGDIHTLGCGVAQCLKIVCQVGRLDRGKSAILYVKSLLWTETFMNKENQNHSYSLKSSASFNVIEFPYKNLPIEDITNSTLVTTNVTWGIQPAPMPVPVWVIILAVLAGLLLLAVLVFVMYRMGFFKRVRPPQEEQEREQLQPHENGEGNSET
Sequence of integrin αvβ3 (P05106 27-788): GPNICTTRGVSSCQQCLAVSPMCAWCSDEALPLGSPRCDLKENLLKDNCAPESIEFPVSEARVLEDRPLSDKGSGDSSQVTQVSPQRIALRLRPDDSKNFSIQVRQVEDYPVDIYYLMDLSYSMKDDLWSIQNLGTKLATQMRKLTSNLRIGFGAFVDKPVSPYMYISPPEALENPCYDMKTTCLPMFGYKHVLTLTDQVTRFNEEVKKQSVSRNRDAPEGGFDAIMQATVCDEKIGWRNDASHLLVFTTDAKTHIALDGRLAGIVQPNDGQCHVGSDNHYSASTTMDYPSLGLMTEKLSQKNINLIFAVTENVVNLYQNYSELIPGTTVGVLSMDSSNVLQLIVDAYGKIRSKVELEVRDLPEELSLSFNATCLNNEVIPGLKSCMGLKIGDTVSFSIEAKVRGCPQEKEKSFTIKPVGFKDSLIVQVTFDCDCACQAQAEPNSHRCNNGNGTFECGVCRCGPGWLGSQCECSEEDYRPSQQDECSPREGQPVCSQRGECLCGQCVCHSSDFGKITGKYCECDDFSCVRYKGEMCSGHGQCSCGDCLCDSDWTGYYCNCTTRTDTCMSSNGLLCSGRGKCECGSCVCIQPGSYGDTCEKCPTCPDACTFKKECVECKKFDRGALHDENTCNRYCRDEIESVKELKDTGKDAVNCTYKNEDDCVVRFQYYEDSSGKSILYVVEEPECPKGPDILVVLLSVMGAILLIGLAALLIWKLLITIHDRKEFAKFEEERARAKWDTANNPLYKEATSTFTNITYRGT

| Compound | Branch points ± SEM [1] | other results |
| --- | --- | --- |
| N[C@@H](Cc1cc(I)c(Oc2ccc(O)c(I)c2)c(I)c1)C(=O)O [T3, 3,5,3′-triiodo-L-thyronine] | 186.8 ± 16.4 | – |
| N[C@@H](Cc1cc(I)c(Oc2cc(I)c(O)c(I)c2)c(I)c1)C(=O)O [T4, L-thyroxine] | 119.2 ± 15.6 | – |
| Angiotensin II (DRVYIHPF; Angiotensin-2; UniProt P01019 25-32, looked up) [small molecule that supports neovascularization; pro-angiogenic factor in the CAM assay] | 103.2 ± 25.9 | – |
| Tetraiodothyroacetic acid [tetrac] | – | agonist activity at the integrin (integrin αvβ3): no agonist activity; binding of T4 and T3 to the integrin (integrin αvβ3): inhibits binding; angiogenic activity of bFGF, VEGF and other pro-angiogenic factors [2]: blocks the angiogenic activity; growth of glioma cells (glioma cells): arrest growth; growth of human breast cancer cells [3]: arrest growth |
| VEGF | 182.4 ± 8.4 | – |
| bFGF: basic fibroblast growth factor | 184.6 ± 18.5 | – |
